The values that follow come from patent US9409891B2, “Solid forms of an antiviral compound” (Gilead Sciences, Inc., priority 2012, dated 2016).

Converted amounts (≈) assume the structure as drawn. Some results are limits rather than exact numbers.

Data set [1] in a line: Follow-up stable form screening (Form II stirred in solvents at about 22° C.). The data set is classed as physicochemical. As to conditions: about 22° C., Form II start. As to the method:
In the follow-up stable form screening experiments, the starting materials were Form II. The solids were stirring in the solvents list below at about 22° C. in 2 ml vials.

The nature of data set [2]: Desolvation screening (vacuum oven). The data set is classed as physicochemical. The following applies: heated to about 110~120° C. in a vacuum oven. The procedure:
Another method of generating anhydrous forms is desolvation. In this study, the solvates and hydrates of Compound I were heated to about 110˜120° C. in a vacuum oven to desolvate.

Data set [3] can be described thus: Stable form competition study in ACN. In kind it is physicochemical. As to conditions: ACN mother liquor. The procedure: To further verify the stability of Form II, competitive crystallization was conducted by adding Forms I through V into a high concentration solution of amorphous Compound I in ACN. […] The mother liquor obtained, which was saturated in terms of Form II, was used in another test in which other forms (Forms I, III, IV and V) were added.

The conditions of data set [4]: dried at 70° C.
Data set [5] can be described thus: First stable form screening (amorphous Compound I in 19 solvents/mixtures at ambient conditions). As to conditions: for 2-Week solids / 24 h solids / solubility: amorphous start, ambient; for solubility: thermodynamic from solid. The data set is classed as physicochemical. As to the method: The first stable form screening was conducted using 19 solvents/mixtures at ambient conditions. The starting material was amorphous. Anti-solvents, either water or heptane, were used to precipitate the solids.
Form I is a hydrate form obtained from ACN/water 50:50 mixture. Form II is an anhydrous form obtained from ACN. […] Solids in water and heptane were amorphous. Other samples remained as solutions.
It appears to be a solvated form. […] Solids in water and heptane remained amorphous. Other samples remained as solution.

The mark [6] stands for this setting: 2 Me-THF, init. conc. 77.4 mg/mL.
The mark [7] stands for this setting: Acetone, init. conc. 79.6 mg/mL.
Setting [8] is: Heptane, init. conc. 12.7 mg/mL.
Setting [9] is: Toluene, init. conc. 16.2 mg/mL.

As for `CC1=CC[C@H](C(=O)N(c2cc(C#CC(C)(C)C)sc2C(=O)O)[C@H]2CC[C@](O)(CO[C@H]3CCOC3)CC2)CC1.CCC(C)=O` (relative stereo) [Form X, 5-(3,3-dimethylbutyn-1-yl)-3-[(cis-4-hydroxy-4-{[(3S)-tetrahydrofuran-3-yloxy]methyl}cyclohexyl){[(1R)-4-methylcyclohex-3-en-1-yl]carbonyl}amino]thiophene-2-carboxylic acid methyl ethyl ketone], the solubility in data set [1] (MEK, value for Form X) was 127 mg/mL.
`CC1=CC[C@H](C(=O)N(c2cc(C#CC(C)(C)C)sc2C(=O)O)[C@H]2CC[C@](O)(CO[C@H]3CCOC3)CC2)CC1.O` (relative stereo) [Form I, 5-(3,3-dimethylbutyn-1-yl)-3-[(cis-4-hydroxy-4-{[(3S)-tetrahydrofuran-3-yloxy]methyl}cyclohexyl){[(1R)-4-methylcyclohex-3-en-1-yl]carbonyl}amino]thiophene-2-carboxylic acid hydrate] had a solubility in data set [1] (Water, value for Form I) of 0.25 mg/mL. The “Final Form after desolvation” value in data set [2] is “Amorphous”. Besides, the “Behaviour of solids added to mother liquor saturated in Form II” value in data set [3] is reported as “dissolved quickly”. In data set [4], the “Solid state after drying (XRPD)” value is “partially became amorphous”.
In the case of `CC(C)O.CC1=CC[C@H](C(=O)N(c2cc(C#CC(C)(C)C)sc2C(=O)O)C2CCC(O)(CO[C@H]3CCOC3)CC2)CC1` (relative stereo) [Form VII, 5-(3,3-dimethylbutyn-1-yl)-3-[(cis-4-hydroxy-4-{[(3S)-tetrahydrofuran-3-yloxy]methyl}cyclohexyl){[(1R)-4-methylcyclohex-3-en-1-yl]carbonyl}amino]thiophene-2-carboxylic acid isopropyl alcohol solvate], the solubility in data set [1] (IPA, value for Form VII) is recorded as 266 mg/mL. Also, the “Final Form after desolvation” value in data set [2] is reported as “Amorphous”.
Turning to `CC1=CC[C@H](C(=O)N(c2cc(C#CC(C)(C)C)sc2C(=O)O)C2CCC(O)(CO[C@H]3CCOC3)CC2)CC1.O` (relative stereo) [Form VIII, 5-(3,3-dimethylbutyn-1-yl)-3-[(cis-4-hydroxy-4-{[(3S)-tetrahydrofuran-3-yloxy]methyl}cyclohexyl){[(1R)-4-methylcyclohex-3-en-1-yl]carbonyl}amino]thiophene-2-carboxylic acid monohydrate], in data set [2], the “Final Form after desolvation” value is “VIII”.
“5-(3,3-dimethylbutyn-1-yl)-3-[(cis-4-hydroxy-4-{[(3S)-tetrahydrofuran-3-yloxy]methyl}cyclohexyl){[(1R)-4-methylcyclohex-3-en-1-yl]carbonyl}amino]thiophene-2-carboxylic acid solvate [Form V]”: the “Final Form after desolvation” value in data set [2] was “Amorphous”.
For `CC1=CC[C@H](C(=O)N(c2cc(C#CC(C)(C)C)sc2C(=O)O)[C@H]2CC[C@](O)(CO[C@H]3CCOC3)CC2)CC1` [Compound I, 5-(3,3-dimethylbutyn-1-yl)-3-[(cis-4-hydroxy-4-{[(3S)-tetrahydrofuran-3-yloxy]methyl}cyclohexyl){[(1R)-4-methylcyclohex-3-en-1-yl]carbonyl}amino]thiophene-2-carboxylic acid], the 2-Week solids result was “solution” in data set [5] (setting [6]); “solution” in data set [5] (setting [7]); “solution” in data set [5] (EtOAc, init. conc. 49.4 mg/mL); “solution” in data set [5] (EtOH, init. conc. 76 mg/mL); “amorphous” in data set [5] (setting [8]); “solution” in data set [5] (IPA, init. conc. 95.4 mg/mL). Besides, the 2-Week solids result is on record as “solution” in data set [5] (IPAc, init. conc. 39.6 mg/mL); “solution” in data set [5] (MEK, init. conc. 65.6 mg/mL); “solution” in data set [5] (MIBK, init. conc. 60.2 mg/mL); “solution” in data set [5] (MeCl2, init. conc. 36 mg/mL); “solution” in data set [5] (MeOH, init. conc. 87.4 mg/mL); “solution” in data set [5] (THF, init. conc. 53.4 mg/mL). Also, the 2-Week solids result was “solution” in data set [5] (setting [9]) and “amorphous” in data set [5] (Water, init. conc. 11 mg/mL). The 24 h solids result in data set [5] (setting [6]) is recorded as “solution”; in data set [5] (setting [7]), “solution”; in data set [5] (EtOAc, init. conc. 49.4 mg/mL), “solution”; in data set [5] (EtOH, init. conc. 76 mg/mL), “solution”; in data set [5] (setting [8]) it was “amorphous”; in data set [5] (IPA/water, init. conc. 47.7 mg/mL) it was “solution”. The 24 h solids entry in data set [5] (IPA, init. conc. 95.4 mg/mL) was “solution”; in data set [5] (IPAc, init. conc. 39.6 mg/mL) it was “solution”; in data set [5] (MEK, init. conc. 65.6 mg/mL), “solution”; in data set [5] (MIBK, init. conc. 60.2 mg/mL), “solution”; in data set [5] (MTBE, init. conc. >45 mg/mL), “solution”; in data set [5] (MeCl2, init. conc. 36 mg/mL) it was “solution”. The 24 h solids result in data set [5] (MeOH, init. conc. 87.4 mg/mL) is listed as “solution”; in data set [5] (THF, init. conc. 53.4 mg/mL), “solution”; in data set [5] (setting [9]) it was “solution”; in data set [5] (Water, init. conc. 11 mg/mL) it was “amorphous”. The solubility in data set [5] (aqueous with cosolvent or surfactant or cyclodextrin, ACN/water (50:50), solids I) was 0.23 mg/mL (≈ 0.423 mM); in data set [5] (aqueous with cosolvent or surfactant or cyclodextrin, EtOH/water, solids III then IV), 14.5 mg/mL (≈ 26.7 mM); in data set [5] (aqueous with cosolvent or surfactant or cyclodextrin, IPA/water, 2-week solids V) it was 1.78 mg/mL (≈ 3.27 mM); in data set [5] (organic solvent or mixture, 2 Me-THF, remained solution), above 77.4 mg/mL; in data set [5] (organic solvent or mixture, ACN, solids II), 13 mg/mL (≈ 23.9 mM); in data set [5] (organic solvent or mixture, Acetone, remained solution), above 79.6 mg/mL. Moreover, the solubility in data set [5] (organic solvent or mixture, EtOAc, remained solution) is above 49.4 mg/mL; in data set [5] (organic solvent or mixture, EtOH, remained solution) it was above 76 mg/mL; in data set [5] (organic solvent or mixture, IPA, remained solution) it was above 95.4 mg/mL; in data set [5] (organic solvent or mixture, IPAc, remained solution), above 39.6 mg/mL; in data set [5] (organic solvent or mixture, MEK, remained solution), above 65.6 mg/mL; in data set [5] (organic solvent or mixture, MIBK, remained solution), above 60.2 mg/mL. In addition, the solubility is 316 mg/mL (≈ 581 mM) in data set [5] (organic solvent or mixture, MTBE, 2-week solids V); above 36 mg/mL in data set [5] (organic solvent or mixture, MeCl2, remained solution); above 87.4 mg/mL in data set [5] (organic solvent or mixture, MeOH, remained solution); above 53.4 mg/mL in data set [5] (organic solvent or mixture, THF, remained solution); above 16.2 mg/mL in data set [5] (organic solvent or mixture, Toluene, remained solution).
In the case of “5-(3,3-dimethylbutyn-1-yl)-3-[(cis-4-hydroxy-4-{[(3S)-tetrahydrofuran-3-yloxy]methyl}cyclohexyl){[(1R)-4-methylcyclohex-3-en-1-yl]carbonyl}amino]thiophene-2-carboxylic acid hydrate and/or solvate [Form III]”, in data set [5] (EtOH/water slurry, after 2 weeks of stirring), the “Form conversion in slurry” value was “converted to Form IV”. Besides, in data set [5] (solids from EtOH/water, dried), the “Form conversion upon drying” value is listed as “converted to Form IV”.
As to `CC1=CC[C@H](C(=O)N(c2cc(C#CC(C)(C)C)sc2C(=O)O)C2CCC(O)(CO[C@H]3CCOC3)CC2)CC1.CCO` (relative stereo) [Form IX, 5-(3,3-dimethylbutyn-1-yl)-3-[(cis-4-hydroxy-4-{[(3S)-tetrahydrofuran-3-yloxy]methyl}cyclohexyl){[(1R)-4-methylcyclohex-3-en-1-yl]carbonyl}amino]thiophene-2-carboxylic acid ethanol solvate], the solubility in data set [1] (EtOH, value for Form IX) is 283 mg/mL.
